# Experimental data reported in patent US12447198B2, “Peptides and fragments for treating diabetes and associated metabolic diseases” (Betavive Ltd., priority 2021, dated 2025).
# Key:
# NOD mice [1] = assay: Islet cell staining for glucagon and insulin in NOD mice; assay type: in vivo, mouse; settings: NOD mice treated with IGF-2 for 13 weeks
# [2] = Safety/toxicity: pathology of blood samples and tissue samples from thirty organs; assay type: in vivo; settings: end of 10 days of treatment, 24 days after termination, and 100 days after termination of 30 days of treatment
# STZ-treated mice [3] = assay: Pancreas histology and insulin immunohistochemical staining of islets; assay type: in vivo, mouse
# Method: FIG. 21 depicts pancreas histology results on STZ-treated mice. […] The non-control mice were treated once a day for 10 days with a 3000 μg/kg dose of IGF-2. The mice were sacrificed on day 35 and pancreas cells were assessed as being insulin positive or negative.
# NOD mice [4] = assay: Serum insulin / insulin secretion in NOD mice treated with IGF-2; assay type: in vivo, mouse
# Method: FIG. 30B depicts the levels of serum insulin in NOD mice measured two weeks after a 66 day course of treatment using IGF-2. Mice that were treated with 3000 μg/kg/day of IGF-2 had serum insulin levels that were about 4-fold higher than the control mice.
# In one exemplary experiment, NOD mice were treated with a 3000 μg/kg daily doses of IGF-2 for 150 days. ⅘ of the treated mice maintained normoglycemia compared to ¼ of the control mice. In another exemplary experiment, NOD mice were treated with a 3000 μg/kg daily dose of IGF-2 for 75 days with follow-up glucose measurements taken for an additional 90 days (during which IGF-2 was not administered). ⅝ of the treated mice maintained normoglycemia compared to 2/11 of the control mice.
# STZ-treated mice [5] = assay: Short term effects of a single IGF-2 injection on glucose and IGF-2 levels, 240 minute time course; assay type: in vivo, mouse
# Method: More specifically, the top panel illustrates the drop in glucose blood levels in three STZ-treated mice after receiving a 800 μg/kg/day dose of IGF-2 over a 240 minute time course. […] IGF-2 is part of a complex system comprising IGF-1 and IGF-2 along with binding proteins, proteases and other interacting molecules. […] Normoglycemia is maintained while total serum IGF-2 is reduced to very low levels. […] Without being bound by this theory, it is believed that a slow release of IGF-2 from a serum complex can maintain normal blood glucose levels.
# STZ-treated mouse islets [6] = assay: MTT viability of STZ-treated mouse islets; assay type: cell-based; settings: increasing concentrations
# Text: Yellow dye MTT is converted to a purple dye by mitochondrial reductase in viable cells. Therefore, the amount of purple dye present determined by measuring optical density of cells at 570 nm serves as a measurement of cell viability.
# STZ-treated mouse islets [7] = assay: Insulin secretion from STZ-treated mouse islets; assay type: cell-based; settings: islets treated with 2.5 mM STZ; 48 hours after treatment; IGF-2 50 nM and 500 nM, GLP-1 100 nM and 1000 nM
# Method: Mouse islet cells were treated with 2.5 mM STZ and subsequently treated with either IGF-2 (FA) at 50 nM and 500 nM, or with GLP-1 at 100 nM and 1000 nM.
# [8] = Blood level of total and free IGF-2 after 40 μg intraperitoneal injection (ELISA); assay type: in vivo, mouse; settings: 240 minute time frame
# Text: Without being bound by this theory, it is believed that IGF-2 binding proteins may initially inactivate the biological activity of free IGF-2. And over time, the bond between IGF-2 and the binding protein may be released, increasing the bioavailability of IGF-2 and leading to a longer term effective treatment.
# mice = assay: Blood glucose concentration kinetics of IGF-2 vs. insulin in a glucose tolerance test; assay type: in vivo, mouse; settings: IGF-2 800 μg/kg
# Text: IGF-2 therefore provides an effect that mimics insulin within the body, and that effect is referred to herein as an “insulinomimetic” effect. […] In this example, administering IGF-2 can provide better results than administering insulin with respect to blood glucose levels, even when only a single dose was used. Without being bound by this theory, it is possible that the IGF-2 combines with a number of binding proteins in the blood and its active free form is then released slowly from the complex.
# STZ-treated mice [9] = assay: Intraperitoneal glucose tolerance test 50 days post-treatment; assay type: in vivo, mouse
# Method: In this experiment, four STZ-treated mice were treated with 12,000 μg/kg/day of IGF-2 (four injections of 3000 μg/kg/day) 5 days and two mice were treated for 10 days. A glucose tolerance test was performed 50 days post-treatment with IGF-2 by challenging the treated mice with a 2 grams/kg dose of glucose and determining the blood glucose level over a 180 minute time course. The blood glucose curves of the treated mice were compared to results for a saline control, and normal (nondiabetic) obese and normal (nondiabetic) lean mice based on published literature (Jorgensen et al., J. Am Assoc. Lab. Animal Sci 2017 56(1): 95-97).
# db/db mice = assay: Serum insulin in db/db mice after long-term IGF-2 treatment; assay type: in vivo, mouse; settings: 12,000 μg/kg daily dose for 68 days, measured 6.5 weeks after the end of treatment
# Method: In this experiment, one group of db/db mice (labeled FA X1) was injected with 3000 μg/kg of IGF-2 once a day for 68 days, a second group of db/db mice (labeled FA X4) was injected with a daily dose of 12000 μg/kg of IGF-2 divided in two injections per day for 68 days, and a third group of db/db mice was injected with saline. Serum insulin levels were measured 6.5 weeks after the end of the 68 day treatment. Treatment with the 12,000 μg/kg daily dose increased serum insulin levels by about 50% with respect to the control.
# STZ-treated mice [10] = assay: Serum insulin and c-peptide levels four weeks after IGF-2 treatment; assay type: in vivo, mouse; settings: four weeks post treatment
# Method: Fasting blood glucose levels (mg/dL) were determined using the Accu-Chek Performa glucometer (Roche Diagnostics, Mannheim, Germany). After approximately two weeks of stable hyperglycemia, C57BL/6 STZ mice received exogenous injections of recombinant human IGF-2 (0.3-12 mg/kg/day injection) intraperitoneally for 5-10 consecutive days. During post-treatment follow-up period and upon termination, mice were tested for: fasting glucose, body weight, glucose tolerance test (IPGTT), serum C-peptide level, serum insulin level, and full blood and histological analysis (CBC, Chemistry, Insulin IHC and H&E).
# C-peptide is a biomarker used to assess pancreatic beta cell function and is normally produced in equimolar amounts to endogenous insulin. Leighton et al., A Practical Review of C-Peptide Testing in Diabetes, Diabetes Ther. 2017 June; 8 (3): 475-487.
substance,measurement,setting,value
insulin-like growth factor 2 [IGF-2],"islet cells, histological staining for glucagon and insulin",NOD mice [1],fully functional islet cells
same,pathologies related to treatment in blood samples and tissue samples from thirty organs,[2],No pathologies were identified
same,number of functional beta cells,"STZ-treated mice [3]; 3000 μg/kg once a day for 10 days, sacrificed on day 35, permanently cured mice",almost four fold increase
same,number of cells that test positive for insulin,"STZ-treated mice [3]; 3000 μg/kg once a day for 10 days, sacrificed on day 35, permanently cured vs non-permanently cured and saline control",significant increase
same,level of insulin in pancreas islets as compared to a naïve mouse (immunohistochemical staining),STZ-treated mice [3]; non-permanently cured mouse,lower level of insulin in its pancreas islets
same,level of insulin in pancreas islets as compared to a naïve mouse (immunohistochemical staining),STZ-treated mice [3]; permanently cured mouse,higher level of insulin in its pancreas islets
same,serum insulin levels relative to the control mice,"NOD mice [4]; 3000 μg/kg/day, two weeks after a 66 day course of treatment",about 4 fold
same,average insulin secretion of the treated mice,"NOD mice [4]; both NOD experiments of Example 14, 3000 μg/kg daily",five times greater than the control mice
same,free IGF-2 levels relative to total IGF-2,"STZ-treated mice [5]; 800 μg/kg dose, 240 minute time course",a small fraction of the total IGF-2 concentration
same,period for which the normal blood glucose level lasts,STZ-treated mice [5]; single 800 μg/kg dose intraperitoneally,over four hours
same,blood glucose level reached (normal level),"STZ-treated mice [5]; single 800 μg/kg dose intraperitoneally, from hyperglycemic levels of 300-500 mg/dl",100 to 200 mg/dL
same,"mouse islet viability (MTT, optical density at 570 nm)",STZ-treated mouse islets [6],increased in a dose dependent manner
same,insulin secretion,STZ-treated mouse islets [7],increased in a dose dependent manner
same,peak free IGF-2 in the blood,[8],1 µg
same,peak total concentration of IGF-2 total in the blood,[8],about 16 μg
same,time at which glucose levels began to rise relative to disappearance of IGF-2 from the blood,mice; compared with FIG. 13,two hours after the IGF-2 was no longer detectable in the blood
same,glucose level after administration,"mice; glucose tolerance test in mice, insulin 1 unit per kg",the glucose level decreased
same,time after which the recovery in glucose levels began,"mice; single dose, insulin 1 unit per kg",after six hours
same,number of IGF-2-treated mice permanently cured,"STZ-treated mice [9]; 12,000 μg/kg/day, four mice 5 days and two mice 10 days",Five
same,glucose levels in the glucose tolerance test,"STZ-treated mice [9]; 2 grams/kg glucose, 50 days post-treatment, Mouse O1, not permanently cured",higher than the normal obese mouse
same,response to the glucose tolerance test (blood glucose over 180 minutes),"STZ-treated mice [9]; 2 grams/kg glucose, 50 days post-treatment, the five permanently cured mice",fell between the glucose tolerance results from the literature for non-diabetic obese mice and non-diabetic lean mice
same,increase of serum insulin levels with respect to the control,db/db mice,about 50%
same,increase in c-peptide levels,STZ-treated mice [10]; four STZ-treated mice,12 fold
same,increase of serum insulin compared to STZ treated control mice,STZ-treated mice [10]; permanently cured mice,50%
